Assay results from US20250295792A1, “POLYETHYLENE GLYCOL-MODIFIED FORM OF KININ OR DERIVATIVE THEREOF AND PHARMACEUTICAL USE THEREOF” (ZonHon Biopharma Institute, Inc., priority 2022, published 2025).
Like-named read-outs stand apart in the source and are kept apart here. Values belong to the compound of their own block, whether it stands above or below them. Where a SMILES comes first, the peptide text is derived from it. Where no end group is shown, it is not given here. [ ]: non-standard residue; d: D form. M‑SPA‑5K = straight-chain monomethoxy PEG succinimidyl propionate, about 5 kDa; 2Thi = N[C@@H](Cc1cccs1)C(=O)O

Legend:
[1] = test system: middle cerebral artery occlusion (MCAO) cerebral ischemia-reperfusion model; assay: MCAO cerebral ischemia-reperfusion model: neurological deficit score and cerebral infarct size; type: in vivo, SD rats; conditions: for Neurological deficit symptoms compared with the model group (in words): Example 7, FIG. 7a; for Neurological deficit symptoms compared with the model group (in words) / Cerebral infarct size compared with the model group (in words): intravenous, Edaravone 6 mg/kg, conjugate 3 mg/kg; for Cerebral infarct size compared with the model group (in words): Example 7, FIG. 7b
Method: SD rats, male, SPF grade, weighing 270-300 g. The middle cerebral artery occlusion (MCAO) of cerebral ischemia-reperfusion model was prepared by using the intraluminal suture method in rats. Animals were anesthetized with gas (isoflurane), and then fixed them in a supine position. The skin was disinfected, and the right common carotid artery, external carotid artery, and internal carotid artery were separated from the midline incision in the neck. The vagus nerve was gently peeled off, and the external carotid artery was ligated and cut. The common carotid artery was clamped near the proximal end, and an incision was made from the distal end of the ligature line of the external carotid artery. The suture (model 2438-A5, purchased from Beijing Xinong Technology Co., LTD.) was inserted and passed through the bifurcation of the common carotid artery into the internal carotid artery. The suture was then slowly inserted until slight resistance was encountered (about 20 mm from the bifurcation), blocking the blood supply to the middle cerebral artery. The neck skin was sutured, disinfected, and the rat was returned to the cage. After 90 minutes of ischemia, the rat was anesthetized again, fixed on the rat board, and the neck skin was cut open to find the suture, which was gently removed. Reperfusion was performed, and the neck skin was sutured, disinfected, and the rat was returned to the cage for feeding.
The rats were divided into sham operation group, model group (administered PBS intravenously), Edaravone group (administered intravenously, 6 mg/kg), and PEG conjugate of lysyl bradykinin group (administered intravenously, 3 mg/kg). The rats were injected once after 2 hours of reperfusion.
The modified Bederson method was used to evaluate neurological defect symptoms.
Animals were anesthetized with 10% chloral hydrate, the brain tissue was removed, the olfactory bulbs, cerebellum and lower brainstem were removed, and the bloodstain on brain surface was washed with […]. After removing surface residual water, the brain tissue was placed at −80° C. for 7 minutes, took out and cut into coronal sections perpendicular to the visual cross plane, and sliced at intervals of 2 mm to the posterior direction. The brain slices were placed in fresh TTC (20 g/L) dye solution prepared with SPSS at 37° C. for 90 minutes. Normal brain tissue was stained deep red, while ischemic brain tissue appeared pale. After washing with SPSS, the brain slices were quickly arranged in sequence from front to back, residual water on the surface was absorbed, and photographed. The image analysis software (Image Tool) was used to delineate the ischemic area (white area) and the right side area on the photos for statistical analysis. The percentage of cerebral infarction area was calculated using the following formula:
Cerebral infarction area (%)=100×total ischemic area/total right hemisphere area.
Except for Table 7-6, the dosage of the other groups was 3 mg/kg (all the dosage was calculated based on peptides). The administration methods included intravenous injection and subcutaneous injection, and the injection was given once after 2 hours of reperfusion.
Based on the same model, the effect of PEG conjugate of lysyl bradykinin variant was investigated by both intravenous and subcutaneous injection at dose of […] (the dose was calculated based on polypeptide). […]

[2] = Stability in SD rat serum system in vitro (UPLC-RP)
Method: Assess the stability of lysyl bradykinin/bradykinin by evaluating its stability in serum system in vitro. 2 mg/ml peptide and SD rat serum were mixed at volume ratio of 85:15, incubated at 37° C. for 30 min, 60 min, 90 min, 120 min, 180 min, etc, terminate by adding 3% trichloroacetic acid (50% volume of the above mixture system with peptide and serum) and effectively remove matrix interference in the serum. Further monitor the degradation of peptide samples in the serum system to evaluate its stability basing on UPLC-RP-UV214 nm method. RP analysis method: Protein BEH C4 2.1×150 mm as chromatographic column, 1.7 μm, column temperature 30° C., mobile phase A: 0.1% TFA/H2O, mobile phase B: 0.1% TFA/ACN, gradient: 0-5 min, 5% B; 5-10 min, 5-40% B; 10-30 min, 40-60% B; 30-32 min, 60-100% B; 32 to 35 min, 5% B.
The stability of PEG conjugates of lysyl bradykinin and its variants was indirectly evaluated by evaluating their stability in serum system in vitro, as determined in Example 2.

[3] = subcutaneous 30 mg in adults; cited from earlier work
B2 receptor = molecular target: T1, B2 receptor (Homo sapiens, UniProt P30411); assay: B2 receptor reporter gene assay in B2-NFAT-CHO-K1 cells; type: cell-based; conditions: Table 3-1; relative activity calculated from EC50, wild type Lys-BK = 100%
T1 construct: expressed in transfected cells; host or cells: CHO-K1
T1 sequence (P30411 1-391): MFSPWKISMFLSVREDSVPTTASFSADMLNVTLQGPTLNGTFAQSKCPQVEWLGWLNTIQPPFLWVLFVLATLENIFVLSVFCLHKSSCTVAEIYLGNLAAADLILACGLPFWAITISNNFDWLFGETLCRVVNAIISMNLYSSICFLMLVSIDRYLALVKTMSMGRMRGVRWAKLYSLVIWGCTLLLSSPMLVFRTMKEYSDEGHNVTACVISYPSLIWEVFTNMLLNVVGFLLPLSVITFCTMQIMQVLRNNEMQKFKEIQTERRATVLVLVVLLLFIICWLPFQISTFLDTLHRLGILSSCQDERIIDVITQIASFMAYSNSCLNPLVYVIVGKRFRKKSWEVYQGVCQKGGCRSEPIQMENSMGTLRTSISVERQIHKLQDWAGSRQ
Text: The pharmacological action of lysyl bradykinin/bradykinin in vivo is achieved by binding to B2 receptors and activating downstream signaling pathways
The cell line B2-NFAT-CHO-K1 stably transfected with B2 receptor reporter gene was constructed based on CHO-K1 host cells and the cell library was constructed. The B2-NFAT-CHO-K1 cell library was used to evaluate the binding activity of lysyl bradykinin/bradykinin or its variants or PEG modified products to B2 receptor in vitro.
Detection methods: The cells were cultured in 96-well plates at 5×10^4 cells/well, 37° C., 5% CO2 for 16-20 hours, and then gradient diluted standard and test solutions were added. After 5 hours, added Bio-Lite luciferase detection reagent and the chemiluminescence intensity was measured. GraphPad was used to make four-parameter equation curve and calculate the relative activity according to the EC50 value.
(§1) In vitro B2-receptor affinity activity and activity of activating downstream signaling pathway of PEG conjugates of lysyl bradykinin and its variants were tested, as in Example 3.

[4] = test system: p-CREB and p-ERK1/2, B2 receptor downstream signals; assay: Western blot of p-ERK1/2 and p-CREB in CHO-K1 cells overexpressing B2 receptor; type: cell-based; conditions: FIG. 5
Method: as §1

[5] = Table 2-1, 2 mg/ml peptide : SD rat serum 85:15 v/v, 37° C., sampled 30-180 min

Compound: CC1=NN(c2ccccc2)C(=O)C1 [Edaravone, reference compound]
Neurological deficit symptoms compared with the model group (in words) [1]: significant improvement in neurological deficit symptoms | Cerebral infarct size compared with the model group (in words) [1]: significant improvement in cerebral infarct size | Neurological deficit symptom score ([1]; Table 6-1, intravenous 6 mg/kg once 2 h after reperfusion, Mean ± SE, model group 3.13 ± 0.09): 2.40 ± 0.13 | Cerebral infarct size (%) ([1]; Table 6-2, intravenous 6 mg/kg, Mean ± SE, model group 48.50 ± 1.66): 34.12 ± 2.35 %

Compound: N=C(N)NCCC[C@H](NC(=O)[C@H](Cc1ccccc1)NC(=O)[C@@H]1CCCN1C(=O)[C@H](CO)NC(=O)[C@H](Cc1cccs1)NC(=O)CNC(=O)[C@@H]1CCCN1C(=O)[C@@H]1CCCN1C(=O)[C@H](CCCNC(=N)N)NC(=O)[C@H](CCCNC(=N)N)NC(=O)[C@@H](N)CCCCN)C(=O)O [Lys-BKm11] (H-KRRPPG[2Thi]SPFR-OH; N-terminus and C-terminus assumed)
Residual time in serum system [2, 5]: 60~90 min

Residual time in serum system [2, 5]: 90 to 120 min
Compound: N=C(N)NCCC[C@H](NC(=O)[C@H](Cc1ccccc1)NC(=O)[C@@H]1CCCN1C(=O)[C@H](CO)NC(=O)[C@H](Cc1cccs1)NC(=O)CNC(=O)[C@@H]1CCCN1C(=O)[C@@H]1CCCN1C(=O)[C@H](CCCNC(=N)N)NC(=O)[C@H](CCCCN)NC(=O)[C@H](CCCNC(=N)N)NC(=O)[C@H](Cc1ccccc1)NC(=O)[C@@H]1CCCN1C(=O)[C@H](CO)NC(=O)[C@H](Cc1cccs1)NC(=O)CNC(=O)[C@@H]1CCCN1C(=O)[C@@H]1CCCN1C(=O)[C@H](CCCNC(=N)N)NC(=O)[C@@H](N)CCCCN)C(=O)O [Lys-BKm14] (H-KRPPG[2Thi]SPFRKRPPG[2Thi]SPFR-OH; N-terminus and C-terminus assumed)

Compound: N=C(N)NCCC[C@H](NC(=O)[C@H](Cc1ccccc1)NC(=O)[C@@H]1CCCN1C(=O)[C@H](CO)NC(=O)[C@H](Cc1cccs1)NC(=O)CNC(=O)[C@@H]1CCCN1C(=O)[C@@H]1CCCN1C(=O)[C@H](CCCNC(=N)N)NC(=O)[C@H](CCCNC(=N)N)NC(=O)[C@H](CCCNC(=N)N)NC(=O)[C@@H](N)CS)C(=O)O [Lys-BKm16] (H-CRRRPPG[2Thi]SPFR-OH; N-terminus and C-terminus assumed)
Residual time in serum system [2, 5]: 60~90 min

Compound: NC(N)=NCCC[C@@H](N)C(=O)N[C@@H](CCCN=C(N)N)C(=O)N1CCC[C@H]1C(=O)N1C[C@H](O)C[C@H]1C(=O)NCC(=O)N[C@@H](Cc1cccs1)C(=O)N[C@@H](CO)C(=O)N1Cc2ccccc2C[C@@H]1C(=O)N1[C@H](C(=O)N[C@@H](CCCN=C(N)N)C(=O)O)C[C@@H]2CCCC[C@@H]21 [icatibant]
peak blood concentration [3]: 405 ng/mL | time to peak blood concentration [3]: 1.79 h

Compound: Lys-BK-SPA5K: wild-type Lys-BK N-terminally single-modified with straight-chain M-SPA-5K PEG (about 5 kDa)
Residual time in serum system [2]: >360 min | Neurological deficit symptoms compared with the model group (in words) [1]: significant improvement in neurological deficit symptoms | Cerebral infarct size compared with the model group (in words) [1]: significant improvement in cerebral infarction area | Neurological deficit symptom score ([1]; Table 6-1, intravenous 3 mg/kg once 2 h after reperfusion, Mean ± SE, model group 3.13 ± 0.09): 2.38 ± 0.15 | Cerebral infarct size (%) ([1]; Table 6-2, intravenous 3 mg/kg, Mean ± SE, model group 48.50 ± 1.66): 34.84 ± 2.90 % | Neurological deficit symptom score ([1]; Table 7-1, intravenous injection 3 mg/kg, model group 2.69 ± 0.12): 2.13 ± 0.18 | Cerebral infarct size (%) ([1]; Table 7-1, intravenous injection 3 mg/kg, model group 38.73 ± 1.99): 24.73 ± 3.15 % | Neurological deficit symptom score ([1]; Table 9-1, oral administration once 6 mg/kg, model group 2.12 ± 0.17): 1.60 ± 0.17 | Cerebral infarct size (%) ([1]; Table 9-1, oral administration once 6 mg/kg, model group 29.23 ± 4.32): 22.82 ± 2.56%

Relative affinity activity (B2 receptor): <10%
Compound: Lys-BKm08: variant peptide PG{THI}SPFR, SEQ ID NO 9 (PG[2Thi]SPFR)

Relative affinity activity (B2 receptor): 0%
Compound: Lys-BKm09: variant peptide {THI}SPFR, SEQ ID NO 10 ([2Thi]SPFR)

Relative affinity activity (B2 receptor): 0%
Compound: Lys-BKm10: variant peptide SPFR, SEQ ID NO 11

Compound: Lys-BKm13-SPA5K: Lys-BKm13 N-terminally single-modified with M-SPA-5K PEG ({M‑SPA‑5K}-CRRPPG[2Thi]SPFR)
Activity of activating phosphorylation of ERK1/2 and CREB, PEG conjugates (in words) [4]: highest activity among different peptide variants | Neurological deficit symptoms and cerebral infarction area compared with the model group (in words) ([1]; Example 9, intravenous and subcutaneous injection 4.5 mg/kg): significant improvement in neurological deficit symptoms and cerebral infarction area | Neurological deficit symptom score ([1]; Table 7-4, intravenous injection 3 mg/kg, model group 3.00 ± 0.10): 2.13 ± 0.15 | Cerebral infarct size (%) ([1]; Table 7-4, intravenous injection 3 mg/kg, model group 38.79 ± 2.01): 23.54 ± 1.99 % | Neurological deficit symptom score ([1]; Table 7-6, subcutaneous injection 4.5 mg/kg, model group 3.00 ± 0.09): 2.69 ± 0.12 | Cerebral infarct size (%) ([1]; Table 7-6, subcutaneous injection 4.5 mg/kg, model group 41.40 ± 1.83): 36.07 ± 2.47% | Neurological deficit symptom score ([1]; Table 8-1, intravenous injection 4.5 mg/kg, model group 2.80 ± 0.11): 2.19 ± 0.16 | Cerebral infarct size (%) ([1]; Table 8-1, intravenous injection 4.5 mg/kg, model group 38.45 ± 2.16): 25.16 ± 2.36 % | Neurological deficit symptom score ([1]; Table 8-1, subcutaneous injection 4.5 mg/kg, model group 2.80 ± 0.11): 2.25 ± 0.17 | Cerebral infarct size (%) ([1]; Table 8-1, subcutaneous injection 4.5 mg/kg, model group 38.45 ± 2.16): 26.06 ± 2.69 %
